Experimental data published in publication PMC10177590, “Canine Intestinal Organoids as a Novel In Vitro Model of Intestinal Drug Permeability: A Proof-of-Concept Study” (Cells, 2023).
Like-named read-outs stand apart in the source and are kept apart here.

How the values were obtained:
[1] = system: canine-colonoid-derived monolayers; experiment: Bidirectional transport (Papp) across canine-colonoid-derived monolayers; type: in vitro ADME, dog; details: for Papp A→B / Papp B→A: Dog colonoid, read-out: Papp × 10^−6; for Papp B→A: BL→AP pH 7.4/7.4, individual wells
Procedure: (§1) After seven days of culture (Figure 3A), the 3D colonoids were harvested from the Matrigel® using the Corning™ cell recovery solution. Matrigel® plugs were dissociated by repeated pipetting after adding 500 μL of pre-chilled cell recovery solution into each well, and the plate was incubated for 30 min at 4 °C to dissolve the Matrigel®. The mixture was then transferred to a 15 mL tube and centrifuged at 100× g for 5 min at 4 °C. The organoid pellet was resuspended in 1 mL TrypLE Express and incubated at 37 °C for 10 min with shaking. To stop the TrypLE action, 6 mL of DMEM/F12 was added to the mixture before centrifugation at 100× g for 5 min at 4 °C. The supernatant was removed, and the pellet was resuspended with CMGF+ media. The harvested colonoid cell suspension was filtered through a sterile cell strainer (40 µm nylon mesh, Thermo Fisher Scientific) to obtain a single-cell suspension. The viability of dissociated cells was assessed by the trypan blue exclusion test [58, 59], and cells were counted manually using a hemocytometer (Hausser Scientific, Horsham, PA, USA). The Transwell™ inserts were pre-coated with Matrigel® (100 μg/mL; Corning®) and rat tail collagen I (30 μg/mL; Fisher Scientific) to promote adhesion, growth, and differentiation in CMGF+ media at 37 °C for 1 h. Dissociated colonoid cells (Passages #15–20) were seeded at a density of 100,000 cells/cm^2 in pre-coated inserts and allowed to grow and differentiate in the presence of CMGF+ media for 10 to 12 days before the experiments (Figure 3B). The CMGF+ culture medium was changed every other day. The structural integrity of the cell monolayer was monitored every other day for up to two weeks by phase-contrast microscopy.
(§2) All transport experiments were conducted at room temperature following the conditions outlined in earlier reports during sampling and incubation [66, 67, 68]. The culture media were aspirated from both AP (0.2 mL) and BL (0.7 mL) chambers. For both the canine colonoid and the Caco-2 monolayer, the BL chambers with HBSS buffer at pH 7.4 (0.7 mL) and the AP chambers with appropriate HBSS buffer at pH 6.8 or 7.4 (0.2 mL) (canine) or pH 6.8 (0.2 mL) (Caco-2 cells) were rinsed and equilibrated at room temperature for 30 min. Two to three wells per drug/pH/direction were used for data generation.
(§3) After Caco-2 and canine colonoid monolayers were equilibrated in the transport buffer for 30 min, the buffer was aspirated from the AP (0.2 mL) and BL (0.7 mL) chambers. The media of the AP chamber were replaced with 0.2 mL of the drug solution prepared in an appropriate transport buffer. HBSS buffer with pH 7.4 was added to the BL chambers. At pre-defined time points (15, 30, 45, 60, 90, and 120 min), samples of 100 µL buffer were collected from the receiver chamber (BL) and replaced with the same volume (i.e., 100 µL) of transport buffer at pH 7.4. For the AP side, drug concentrations of the donor solution were measured prior to introduction into the well and at the end of the study (120 min). In so doing, no buffer replacement was needed. All study samples were labeled and stored at −80 °C until further analysis.
(§4) The same procedures described above for studying AP→BL permeability were followed when studying BL→AP, with the only difference being that the donor chamber was now the BL side and the receiver chamber was now the AP side. At pre-determined time intervals (15, 30, 45, 60, 90, and 120 min), 100 µL of buffer was removed from the receiver chamber (AP) and replaced with the same volume (i.e., 100 µL) of transport buffer with the specified pH. The collected samples were stored at −80 °C until further analysis by mass spectrometry (details below).

[2] = low permeability, high solubility; cited from earlier work
[3] = Bidirectional transport (Papp) across canine-colonoid-derived monolayers; type: in vitro ADME, dog; details: dog, Dog colonoid
Procedure: as §1, §2, §3, §4

Caco-2 cell monolayers = experiment: Bidirectional transport (Papp) across Caco-2 cell monolayers; type: in vitro ADME, human
Procedure: (§5) The harvested Caco-2 cell suspension was then filtered through a sterile cell strainer (40 µm nylon mesh, Thermo Fisher Scientific) to obtain a single-cell suspension. Caco-2 cell viability and concentration were determined by a trypan blue exclusion test [57, 58]. Single Caco-2 cells (passages 50–55) were seeded at a density of 75,000 cells/cm^2 in the apical chamber of the insert and cultured in CCCM media. The culture medium in both apical and basolateral chambers was changed every other day. In the transport studies, the monolayers were utilized 18 to 20 days after plating.
as §2, §3, §4
(§6) The uncorrected Papp estimates for the three drugs of interest (Papp-uncorrected, cm/s) were calculated as follows (Equation (2)) [7]: (2) Papp-uncorrected =VR/(A×C0)×dC/dt where VR is the volume in the receiver chamber (mL), A is the surface area of the filter ( 0.33 cm^2 ), C0 is the initial drug concentration (µM) in the donor chamber, and dC/dt is the maximum slope of the line defining the cumulative drug concentration (mg/mL) vs. time (min) in the receiver compartment. […] The estimated concentrations in the receiver compartment were corrected for drug removed during prior samples.
(§7) These Papp value estimates were further corrected for the percent recovery (Rec (%)) in each well [71, 72] as follows (Equation (3)): (3) Rec (%) =mg donor hr 2+total mg receiver hr 2/mg drug introduced into the donor compartment at hr 0
(§8) The corrected Papp estimates reported herein were, therefore, calculated as follows (Equation (4)):(4) Papp= Papp−uncorrected /Rec (%)

[4] = as above; type: in vitro ADME, human; details: human; for Papp A→B at 120 min, 0.04 mg/mL: Caco-2, pH 6.8, 0.04 mg/mL (58.4 μM); for Papp A→B at 120 min, 0.4 mg/mL: Caco-2, pH 6.8, 0.4 mg/mL (584.1 μM); for Papp B→A at 120 min, 0.04 mg/mL: Caco-2, pH 7.4, 0.04 mg/mL (58.4 μM); for Papp B→A at 120 min, 0.4 mg/mL: Caco-2, pH 7.4, 0.4 mg/mL (584.1 μM); for Papp A→B at 120 min, 1 mg/mL: Caco-2, pH 6.8, 1 mg/mL (3380 μM); for Papp B→A at 120 min, 1 mg/mL: Caco-2, pH 7.4, 1 mg/mL (3380 μM)
Procedure: as §5, §2, §3, §4, §6, §7, §8

P-gp = details: cited from earlier work
[5] = parameters: method as in earlier work; details: ref 65 (PubChem), cited from earlier work
[6] = Human Caco-2, AP→BL pH 6.8/7.4, N = 2, read-out: Papp × 10^−6 Avg
[7] = Human Caco-2, AP→BL pH 6.8/7.4, individual wells, read-out: Papp × 10^−6
[8] = Human Caco-2, BL→AP pH 7.4/7.4, N = 2, read-out: Papp × 10^−6 Avg
[9] = Human Caco-2, BL→AP pH 7.4/7.4, individual wells, read-out: Papp × 10^−6

For `CC(C)NCC(O)COc1ccc(CC(N)=O)cc1` (centres unmarked) [Atenolol], the “drug in the receiver compartment” value ([1]; 2.0 mg/mL, canine colonoids, irrespective of pH or direction (AP→BL or BL→AP)) is given as “not detectable” and the “BCS Class” value [2] is given as “Class III”.
Work on `COCCc1ccc(OCC(O)CNC(C)C)cc1` (centres unmarked) [Metoprolol] yielded a Papp A→B ([1]; 0.04 mg/mL (58.4 μM), AP→BL pH 6.8/7.4, individual wells) of 18.5 ×10⁻⁶ cm/s, a Papp A→B ([1]; 0.04 mg/mL (58.4 μM), AP→BL pH 7.4/7.4, individual wells) of 13.5 ×10⁻⁶ cm/s and a Papp B→A ([1]; 0.04 mg/mL (58.4 μM)) of 12.7 ×10⁻⁶ cm/s. The Papp A→B ([1]; 0.4 mg/mL (584.1 μM) ± FITC-dextran 200 µg/mL, AP→BL pH 6.8/7.4, individual wells) was 9.1 ×10⁻⁶ cm/s, the Papp A→B ([1]; 0.4 mg/mL (584.1 μM) ± FITC-dextran 200 µg/mL, AP→BL pH 7.4/7.4, individual wells) was 11.2 ×10⁻⁶ cm/s and the Papp B→A ([1]; 0.4 mg/mL (584.1 μM) ± FITC-dextran 200 µg/mL) was 9.94 ×10⁻⁶ cm/s. For the same compound, the Papp A→B at 120 min, 0.04 mg/mL ([3]; pH 6.8, 0.04 mg/mL (58.4 μM), AP→BL pH 6.8/7.4, N = 2, read-out: Papp × 10^−6 Avg) was 17.7 ×10⁻⁶ cm/s, the Papp A→B at 120 min, 0.04 mg/mL ([3]; pH 6.8, 0.04 mg/mL (58.4 μM), AP→BL pH 6.8/7.4, individual wells, read-out: Papp × 10^−6) was 16.8 ×10⁻⁶ cm/s and the Papp A→B at 120 min, 0.4 mg/mL ([3]; pH 6.8, 0.4 mg/mL (584.1 μM) ± FITC-dextran 200 µg/mL, AP→BL pH 6.8/7.4, individual wells, read-out: Papp × 10^−6) was 8.33 ×10⁻⁶ cm/s. It also gave a Papp A→B at 120 min, 0.4 mg/mL ([3]; pH 6.8, 0.4 mg/mL (584.1 μM) ± FITC-dextran 200 µg/mL, AP→BL pH 6.8/7.4, read-out: Papp × 10^−6 Avg) of 8.72 ×10⁻⁶ cm/s, a Papp A→B at 120 min, 0.04 mg/mL ([3]; pH 7.4, 0.04 mg/mL (58.4 μM), AP→BL pH 7.4/7.4, N = 2, read-out: Papp × 10^−6 Avg) of 13.5 ×10⁻⁶ cm/s and a Papp A→B at 120 min, 0.04 mg/mL ([3]; pH 7.4, 0.04 mg/mL (58.4 μM), AP→BL pH 7.4/7.4, individual wells, read-out: Papp × 10^−6) of 13.4 ×10⁻⁶ cm/s. For the same compound, the Papp B→A at 120 min, 0.04 mg/mL ([3]; pH 7.4, 0.04 mg/mL (58.4 μM), BL→AP pH 7.4/7.4, N = 2, read-out: Papp × 10^−6 Avg) was 11.9 ×10⁻⁶ cm/s, the Papp B→A at 120 min, 0.04 mg/mL ([3]; pH 7.4, 0.04 mg/mL (58.4 μM), BL→AP pH 7.4/7.4, individual wells, read-out: Papp × 10^−6) was 11.2 ×10⁻⁶ cm/s and the Papp A→B at 120 min, 0.4 mg/mL ([3]; pH 7.4, 0.4 mg/mL (584.1 μM) ± FITC-dextran 200 µg/mL, AP→BL pH 7.4/7.4, individual wells, read-out: Papp × 10^−6) was 9.9 ×10⁻⁶ cm/s. It also gave a Papp A→B at 120 min, 0.4 mg/mL ([3]; pH 7.4, 0.4 mg/mL (584.1 μM) ± FITC-dextran 200 µg/mL, AP→BL pH 7.4/7.4, read-out: Papp × 10^−6 Avg) of 10.5 ×10⁻⁶ cm/s, a Papp B→A at 120 min, 0.4 mg/mL ([3]; pH 7.4, 0.4 mg/mL (584.1 μM) ± FITC-dextran 200 µg/mL, BL→AP pH 7.4/7.4, individual wells, read-out: Papp × 10^−6) of 9.88 ×10⁻⁶ cm/s and a Papp B→A at 120 min, 0.4 mg/mL ([3]; pH 7.4, 0.4 mg/mL (584.1 μM) ± FITC-dextran 200 µg/mL, BL→AP pH 7.4/7.4, read-out: Papp × 10^−6 Avg) of 9.91 ×10⁻⁶ cm/s. The “Papp × 10^−6” value (Caco-2 cell monolayers; 0.04 mg/mL (58.4 μM), Human Caco-2, AP→BL pH 6.8/7.4, individual wells) was 13.13 × 10^−6 cm/s, the “Papp × 10^−6” value (Caco-2 cell monolayers; 0.04 mg/mL (58.4 μM), Human Caco-2, BL→AP pH 7.4/7.4, individual wells) was 19.03 × 10^−6 cm/s and the “Papp × 10^−6” value (Caco-2 cell monolayers; 0.4 mg/mL (584.1 μM), Human Caco-2, AP→BL pH 6.8/7.4, individual wells) was 16.45 × 10^−6 cm/s. For the same compound, the “Papp × 10^−6” value (Caco-2 cell monolayers; 0.4 mg/mL (584.1 μM), Human Caco-2, BL→AP pH 7.4/7.4, individual wells) was 12.37 × 10^−6 cm/s, the Papp A→B at 120 min, 0.04 mg/mL [4, 6] was 15.3 ×10⁻⁶ cm/s and the Papp A→B at 120 min, 0.04 mg/mL [4, 7] was 17.5 ×10⁻⁶ cm/s. The Papp A→B at 120 min, 0.4 mg/mL [4, 6] was 17.9 ×10⁻⁶ cm/s, the Papp A→B at 120 min, 0.4 mg/mL [4, 7] was 19.3 ×10⁻⁶ cm/s and the Papp B→A at 120 min, 0.04 mg/mL [4, 8] was 17.7 ×10⁻⁶ cm/s. It also gave a Papp B→A at 120 min, 0.04 mg/mL [4, 9] of 16.3 ×10⁻⁶ cm/s, a Papp B→A at 120 min, 0.4 mg/mL [4, 8] of 13.1 ×10⁻⁶ cm/s and a Papp B→A at 120 min, 0.4 mg/mL [4, 9] of 13.8 ×10⁻⁶ cm/s. For the same compound, the P-gp substrate status (P-gp) was “not a substrate for P-gp transport”, the “Aqueous Solubility (25 °C)” value ([5]; 25 °C) was greater than 1000 mg/mL and the “Log P” value [5] was 2.15.
`CC(C)NCC(O)COc1cccc2ccccc12` (centres unmarked) [Propranolol] gave a Papp A→B ([1]; 1 mg/mL (3380 μM), AP→BL pH 6.8/7.4, individual wells) of 11.1 ×10⁻⁶ cm/s, a Papp A→B ([1]; 1 mg/mL (3380 μM), AP→BL pH 7.4/7.4, individual wells) of 12 ×10⁻⁶ cm/s and a Papp B→A ([1]; 1 mg/mL (3380 μM)) of 12 ×10⁻⁶ cm/s. It also gave a Papp A→B at 120 min, 1 mg/mL ([3]; pH 6.8, 1 mg/mL (3380 μM), AP→BL pH 6.8/7.4, N = 2, read-out: Papp × 10^−6 Avg) of 11.6 ×10⁻⁶ cm/s, a Papp A→B at 120 min, 1 mg/mL ([3]; pH 6.8, 1 mg/mL (3380 μM), AP→BL pH 6.8/7.4, individual wells, read-out: Papp × 10^−6) of 12.2 ×10⁻⁶ cm/s and a Papp A→B at 120 min, 1 mg/mL ([3]; pH 7.4, 1 mg/mL (3380 μM), AP→BL pH 7.4/7.4, N = 2, read-out: Papp × 10^−6 Avg) of 12 ×10⁻⁶ cm/s. The Papp A→B at 120 min, 1 mg/mL ([3]; pH 7.4, 1 mg/mL (3380 μM), AP→BL pH 7.4/7.4, individual wells, read-out: Papp × 10^−6) was 12 ×10⁻⁶ cm/s, the Papp B→A at 120 min, 1 mg/mL ([3]; pH 7.4, 1 mg/mL (3380 μM), BL→AP pH 7.4/7.4, N = 2, read-out: Papp × 10^−6 Avg) was 11.5 ×10⁻⁶ cm/s and the Papp B→A at 120 min, 1 mg/mL ([3]; pH 7.4, 1 mg/mL (3380 μM), BL→AP pH 7.4/7.4, individual wells, read-out: Papp × 10^−6) was 10.9 ×10⁻⁶ cm/s. The “Papp × 10^−6” value (Caco-2 cell monolayers; 1 mg/mL (3380 μM), Human Caco-2, AP→BL pH 6.8/7.4, individual wells) was 12.75 × 10^−6 cm/s, the “Papp × 10^−6” value (Caco-2 cell monolayers; 1 mg/mL (3380 μM), Human Caco-2, BL→AP pH 7.4/7.4, individual wells) was 12.43 × 10^−6 cm/s and the Papp A→B at 120 min, 1 mg/mL [4, 6] was 12.4 ×10⁻⁶ cm/s. The Papp A→B at 120 min, 1 mg/mL [4, 7] was 12.1 ×10⁻⁶ cm/s, the Papp B→A at 120 min, 1 mg/mL [4, 8] was 11.9 ×10⁻⁶ cm/s and the Papp B→A at 120 min, 1 mg/mL [4, 9] was 11.4 ×10⁻⁶ cm/s.
